We go through one molecule from publication PMC8754100, “Role of Hepatocyte- and Macrophage-Specific PPARγ in Hepatotoxicity Induced by Diethylhexyl Phthalate in Mice” (Environmental Health Perspectives, 2022).

The target in the experiment is T1, PPARα (Homo sapiens, UniProt Q07869).
T1 construct: gene PPARA
T1 sequence (Q07869 1-468): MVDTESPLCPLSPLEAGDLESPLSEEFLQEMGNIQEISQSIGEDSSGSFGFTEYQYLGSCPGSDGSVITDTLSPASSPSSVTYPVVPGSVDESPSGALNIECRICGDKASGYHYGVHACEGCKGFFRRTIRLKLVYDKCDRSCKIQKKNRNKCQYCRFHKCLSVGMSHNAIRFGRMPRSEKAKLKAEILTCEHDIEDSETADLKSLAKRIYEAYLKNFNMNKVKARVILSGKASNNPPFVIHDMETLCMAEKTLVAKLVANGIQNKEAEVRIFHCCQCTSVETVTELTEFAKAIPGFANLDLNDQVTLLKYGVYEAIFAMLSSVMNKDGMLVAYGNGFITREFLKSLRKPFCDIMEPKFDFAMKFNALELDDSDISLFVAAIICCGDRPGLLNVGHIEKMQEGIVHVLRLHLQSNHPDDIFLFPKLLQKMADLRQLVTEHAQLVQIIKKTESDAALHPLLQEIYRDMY
Nature of the experiment: SPR (OpenSPR) with recombinant human PPARα immobilized by amine coupling. It is filed as binding.

pKd: −log10 of the molar value.

The term pKd denotes the negative decadic logarithm of the Kd, by convention in mol/L. For the molecule `CCCCC(CC)COC(=O)c1ccccc1C(=O)O` (stereo not shown) [MEHP, mono(2-ethylhexyl) phthalate], the pKd is 3.20.
